Experimental data as given in patent US5070210A, “Novel ketenimines as intermediates for insecticides” (ICI Americas Inc., priority 1990, dated 1991).

Legend:
Assay type in all cases: in vivo
[1] = test system: Housefly [Musca domestica]; assay: Housefly insecticidal test; conditions: μg per 25 female flies; mortality after 48 hours
In short: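 Acetone solutions (with 0.01% peanut oil) dried onto dish bottoms, then 25 female flies, 1-2 days old, caged over the residue with sugar water. Mortality scored at 48 hours; LC50 from dosage-mortality curves, in μg per 25 female flies, top level 100 μg.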

[2] = test system: Tobacco Budworm [Heliothis virescens (Fabricius)] larvae; assay: Tobacco budworm contact test; conditions: second-instar larvae, percent in solution, 5 days
In short: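 Cotton cotyledons dipped 2–3 s in compound in 50-50 acetone-water, dried, then infested with 5 second-instar larvae and held 5 days at high humidity. Mortality scored; LC50 from dosage-mortality curves, expressed as percent compound in solution, concentrations from 0.1% downward.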

[3] = test system: Tobacco Budworm [Heliothis virescens (Fabricius)] eggs; assay: Tobacco budworm egg test; conditions: 2-day old eggs, percent in solution
In short: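 LC50 values (percent test compound in the dip solution) were calculated from dosage-mortality curves. Egg patches, 2 days old, were dipped in acetone solutions at concentrations from 0.1% downward and held at 78° F on rearing medium until control larvae hatched and fed.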

[4] = test system: Beet Armyworm (Spodoptera exigua); assay: Beet armyworm insecticidal test; conditions: second-instar larvae, percent in solution; five days
Procedure: The compounds in Tables 1 and 2 above were tested for insecticidal activity using the following testing procedures. LC50 values, based on the results of these tests and calculated according to dosage-mortality curves, are expressed in Table 3.
Beet Armyworm (Spodoptera exigua):
Test compounds were diluted in a 50-50 acetone-water solution. Young leaves of sugar beets (Beta vulgaris) were immersed in the test solutions for 2-3 seconds and placed on a wire screen to dry. The dried leaves were placed in petri dishes containing a moistened filter paper and infested with five second-instar beet armyworm larvae. The dishes were placed in a high humidity chamber. Mortality of the larvae was recorded five days later. Test concentrations ranged from 0.1% downward. The LC-50 values are expressed below in Table 3 under the heading "BAW" in terms of percent of the test compound in solution.

[5] = test system: Cabbage Looper [Trichoplusia ni (Hubner)]; assay: Cabbage looper insecticidal test; conditions: second-instar larvae, percent in solution; 3-5 days
In short: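 Leaf dip, squash cotyledons, 50-50 acetone-water, top dose 0.1% and lower. 5 second-instar larvae/dish, moist filter paper, high-humidity chamber. Mortality at 3-5 d; LC50 (% in solution) from dosage-mortality curves.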

[6] = test system: Aster Leafhopper [Macrosteles fascifrens (Stal)]; assay: Aster leafhopper insecticidal test; conditions: adults/nymphs, percent in solution; 48 hours
In short: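 Three ~10 cm oat seedlings per cup were dipped 2-3 seconds in 50-50 acetone-water compound solutions, dried, and caged with ten adult/nymph leafhoppers. Mortality was counted after 48 hours at concentrations from 0.05% downward. LC50, as percent compound in solution, came from dosage-mortality curves.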

[7] = test system: Maize weevil [Sitophilus Zeamais (Motschulsky)]; assay: Maize weevil insecticidal test; conditions: adult weevils, percent in solution; 48 hours
In short: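 LC50, in percent of compound in solution, was derived from dosage-mortality curves after 48 h at about 25 °C. Ten adult weevils per container fed on four corn seeds briefly immersed in acetone:water (50:50) solutions of up to 0.01% and dried.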

| SMILES | LC50, HF [1] [µg] | LC50, TBW, C (TBW-C) [2] [%] | LC50, TBW, E (TBW-E) [3] [%] | LC50, BAW [4] [%] | LC50, CL [5] [%] | LC50, LH [6] [%] | LC50, MW [7] [%] |
| --- | --- | --- | --- | --- | --- | --- | --- |
| CC(C)C(=Nc1ccc(Cl)cc1)OCc1cccc(Oc2ccccc2)c1 [Compound 2] | 4.5 | 0.0009 | 0.04 | 0.01 | 0.006 | 0.0003 | – |
| Clc1ccc(N=C(OCc2cccc(Oc3ccccc3)c2)C(Cl)Cl)c(Cl)c1 [Compound 4] | 100 | 0.05 | > 0.1 | 0.04 | 0.007 | > 0.05 | – |
| CC(C)C(=Nc1ccc(Cl)c(Cl)c1)OCc1cccc(Oc2ccccc2)c1 [Compound 14] | 40 | – | – | 0.005 | 0.004 | 0.001 | 0.01 |
| Clc1ccccc1N=C(OCc1cccc(Oc2ccccc2)c1)C(Cl)Cl [Compound 34] | > 100 | 0.01 | > 0.1 | 0.015 | 0.015 | – | – |
| Fc1ccc(N=C(OCc2cccc(Oc3ccccc3)c2)C2CC2)cc1 [Compound 45] | 30 | 0.01 | 0.08 | 0.1 | 0.03 | > 0.05 | – |
| CC(C)C(=Nc1cccc(F)c1)OCc1cccc(Oc2ccccc2)c1 [Compound 47] | 10 | 0.002 | 0.06 | 0.002 | 0.002 | 0.0003 | – |
| CC(C)C(=Nc1ccc(F)cc1F)OCc1cccc(Oc2ccccc2)c1 [Compound 52] | 8 | 0.004 | > 0.05 | 0.01 | 0.0025 | 0.001 | – |
| CC(C)C(=Nc1ccc(F)cc1)OCc1ccc(F)c(Oc2ccccc2)c1 [Compound 53] | 2 | 0.0025 | 0.02 | 0.003 | 0.0005 | – | – |
| CC(C)C(=Nc1ccc(F)c(F)c1)OCc1cccc(Oc2ccccc2)c1 [Compound 54] | 3.5 | 0.001 | 0.017 | 0.004 | 0.0003 | 0.00015 | – |
| Cc1c(Cl)cccc1N=C(OCc1cccc(Oc2ccccc2)c1)C(Cl)Cl [Compound 97] | 10 | 0.004 | 0.04 | 0.01 | 0.002 | – | – |
| CCC(C)C(=Nc1ccc(F)c(Cl)c1)OCc1cccc(Oc2ccccc2)c1 (stereo not drawn) [Compound 122] | 37 | – | 0.05 | 0.01 | 0.0007 | > 0.05 | > 0.01 |
| Cc1ccc(N=C(OCc2cccc(Oc3ccccc3)c2)C(Cl)Cl)cc1 [Compound 139] | 4.2 | 0.005 | 0.05 | 0.007 | 0.015 | – | – |
| O=[N+]([O-])c1ccc(N=C(OCc2cccc(Oc3ccccc3)c2)C(Cl)Cl)cc1 [Compound 173] | 18 | > 0.1 | > 0.1 | > 0.1 | 0.02 | – | – |
| CC(C)C(=Nc1ccc(Br)c(F)c1)OCc1ccc(F)c(Oc2ccc(F)cc2)c1 [Compound 282] | 16 | 0.0007 | 0.02 | 0.0025 | 0.00007 | – | 0.008 |
| CC(C)C(=Nc1ccc2c(c1)OC(C)(C)O2)OCc1ccc(F)c(Oc2ccc(F)cc2)c1 [Compound 283] | 23 | 0.0009 | 0.016 | 0.0013 | 0.00009 | – | > 0.01 |
| CC(C)C(=Nc1ccc(F)c(I)c1)OCc1ccc(F)c(Oc2ccc(Cl)cc2)c1 [Compound 326] | 25 | 0.0005 | 0.03 | 0.004 | 0.00015 | – | – |
| CC(C)C(=Nc1ccc(F)c(Cl)c1F)OCc1cccc(Oc2ccccc2)c1 [Compound 332] | 7 | 0.00075 | 0.015 | 0.0012 | 0.00045 | – | – |
| CC(C)C(=Nc1ccc(Br)cc1)OCc1ccc(F)c(Oc2ccc(F)cc2)c1 [Compound 333] | 15 | 0.00075 | 0.025 | > 0.1 | 0.00024 | – | > 0.01 |
| CC(C)C(=Nc1ccc(I)cc1)OCc1ccc(F)c(Oc2ccc(F)cc2)c1 [Compound 335] | 34 | 0.00025 | 0.05 | > 0.1 | 0.00027 | – | > 0.01 |
| CC(C)C(=Nc1ccc(F)c(Cl)c1)OCc1cc(Oc2ccc(F)cc2)c(F)cc1F [Compound 343] | 40 | 0.00025 | > 0.1 | > 0.1 | 0.00027 | – | > 0.01 |
| CC(C)C(=Nc1ccc2c(c1)OC(F)(F)O2)OCc1cccc(Oc2ccc(Cl)cc2)c1 [Compound 450] | 72 | 0.0001 | 0.015 | 0.005 | 0.00016 | – | 0.01 |
| CC(C)C(=Nc1ccc(F)c(Cl)c1)OCc1cccc(Oc2ccc(Cl)cc2)n1 [Compound 463] | 8 | – | 0.0075 | 0.0024 | 0.00009 | 0.0003 | 0.01 |
| CC(C)C(=Nc1ccc(F)c(Cl)c1F)OCc1cccc(Oc2ccc(Cl)cc2)n1 [Compound 500] | 16 | 0.00075 | 0.02 | 0.002 | 0.00009 | – | – |
